Laboratory results taken from article PMC9271048, “Probing strigolactone perception mechanisms with rationally designed small-molecule agonists stimulating germination of root parasitic weeds” (Nature Communications, 2022).
Read-outs that look alike come from different tables or passages of the source.

Columns and labels:
[1] = Chemical reactivity analysis (HPLC, methanol/PBS pH 7.4); type: physicochemical
Method: Chemical reactivity is an important factor in the bioactivity of natural and synthetic SLs.
One hundred twenty microliters of sample solution was added to a solution of PBS (10 mM, pH 7.4, 810 μL) and methanol (270 μL). The solution was stirred vigorously for 30 s and then transferred to HPLC vial, and the vial was stored at 26 ± 1 °C. […] The analytical column was Extend-C18 (4.6 mm × 150 mm × 5 μm). The mobile phases were CH3CN and H2O (containing 0.1% HCO2H), VCH3CN:VH2O = 50:50, with a flow rate of 1 mL/min, and an injection volume of 5 μL. The percentage of remaining compounds in the solution was calculated from the peak area. The half-life times (t1/2) of samples were calculated.

ShHTL7 = ShHTL7 (Striga hermonthica, UniProt A0A0M3PNA2); experiment: ShHTL7-hydrolysis reaction analysis (HPLC); type: biochemical; details: 10 μM compound, 30 °C, 30 min; for relative percentage of hydrolysis by ShHTL7, source data average: Supplementary Figs. 11, 20a, 24a
Method: Compounds 4a, (R)- and (S)-4a, 4g-i, and rac-GR24 were dissolved in DMSO and prepared as stock solution ([…]) just before use. A 200 μL of the reaction solution consisting of PBS buffer (pH 7.3), 10 μM samples, and 10 μg recombinant ShHTL7 or its mutants was incubated at 30 °C for 30 min; with the reaction solution (200 μL) containing PBS buffer (pH 7.3) and 10 μM samples as the blank control[40],[52]. Subsequently, the reaction was terminated by adding 200 μL of methanol, and then the reaction mixture was shaken for 10 s and centrifuged at 5310 × g for 60 s. The supernatant was filtered and the remaining amount of samples was analyzed by HPLC. The relative percentages of hydrolysis were obtained by using the amount of compounds in blank control as reference.
Supplementary Fig. 11. Hydrolysis of 4a, (R)-4a, (S)-4a, 4g-i, and rac-GR24 by ShHTL7 at 30 °C for 30 min. The remaining amounts of compounds in recombinant ShHTL7 protein and buffer solution were determined by HPLC analysis. The relative percentages of hydrolysis were calculated by using the amount of compounds in the buffer as reference. The error bar indicates SD (n = 3 biologically independent experiments).
(§1) (1 picture or pasted object on this page, not shown here)

P. aegyptiaca seeds = experiment: P. aegyptiaca seed germination assay; type: in vivo, Phelipanche aegyptiaca; design: P. aegyptiaca germination EC50 values, source data average: unit not given here; P. aegyptiaca seed germination activity, source data average: unit of the concentration uncertain; details: for P. aegyptiaca seed germination activity, source data average: Supplementary Fig. 9b
Method: P. aegyptiaca seeds were harvested from Xinjiang province, China in 2017. The seeds were surface sterilized using 1% NaClO solution for 2 min and then washed with distilled water six times. For seed germination assay, about 20 pieces of glass fiber-filter paper discs (15 mm diameter, Whatman GF/B) were placed separately on two layers of filter papers (9 cm diameter, Whatman) in a Petri dish. Five milliliters of distilled water was added to each Petri dish to wet the papers. Approximately 40–90 sterilized seeds were spread onto each glass fiber-filter paper disc. After the seeds were conditioned in the dark at 25 °C for 4 days[48], glass fiber-filter paper discs were blotted dry on filter papers (9 cm) and transferred to the wells of 24-well cell culture plates. The testing compounds were dissolved in acetone and diluted with H2O (VH2O/Vacetone = 999/1) just before use[49]. rac-GR24 and 1‰ acetone solution were used as positive and negative controls, respectively. One hundred microliters of the test solution was added to each well of the plates, and all treatments were performed in three biological repeats. The plates were sealed and incubated in the dark at 25 °C for a week. The experiments were performed at least three times. The germinated seeds were observed by using an electronic magnifier at ×20 magnification.

[2] = tested on: ShHTLs (10 HTL proteins in S. hermonthica); experiment: YLG-based competition assay on HTL proteins of S. hermonthica; type: biochemical, Striga hermonthica; details: Supplementary Fig. 27
Description: In P. aegyptiaca, 5 KAI2s have been proposed as the SL receptors for the regulation of seed germination. […] The high sequence similarity may explain the consistency of these compounds in inducing germination in both S. hermonthica and P. aegyptiaca.
The excitation and emission wavelengths of YLG are 480 and 520 nm, respectively. We used a fluorescence spectrophotometer (CARY Eclipse) to detect the fluorescence intensity change of YLG during the enzymatic hydrolysis assay process. All the testing compounds and YLG were dissolved in DMSO and prepared as stock solutions just before use. […] The changes of fluorescence at 520 nm of each well were recorded every 1 min for 30 min. Using the reaction mixture without adding enzyme and tested compounds as the background control. After subtracting the background hydrolysis, a linear fluorescence increase in 8 min was used for further inspection. The IC50 values were determined via fitting relative inhibition percentages with the varying concentrations of compounds in Microsoft Excel.
Supplementary Fig. 27. Binding of compounds 4a, (R)- and (S)-4a, and 4g-i to the HTL proteins in S. hermonthica and KAI2 protein homologs in P. aegyptiaca. In the competitive inhibitory activity assay, YLG (3 µM) was used as the fluorogenic substrate. Error bar indicates SD (n = 3 biologically independent experiments).
as §1

[3] = ShHTL2, YLG competition, read-out: IC50, replicate 1
[4] = ShHTL2, YLG competition, read-out: IC50, replicate 2
[5] = ShHTL2, YLG competition, read-out: IC50, replicate 3
[6] = ShHTL2, average of 3 replicates, read-out: IC50, average
[7] = ShHTL3, YLG competition, read-out: IC50, replicate 1
[8] = ShHTL3, YLG competition, read-out: IC50, replicate 2
[9] = ShHTL3, YLG competition, read-out: IC50, replicate 3
[10] = ShHTL3, average of 3 replicates, read-out: IC50, average
[11] = ShHTL4, YLG competition, read-out: IC50, replicate 1
[12] = ShHTL4, YLG competition, read-out: IC50, replicate 2
[13] = ShHTL4, YLG competition, read-out: IC50, replicate 3
[14] = ShHTL4, average of 3 replicates, read-out: IC50, average
[15] = ShHTL5, YLG competition, read-out: IC50, replicate 1
[16] = ShHTL5, YLG competition, read-out: IC50, replicate 2
[17] = ShHTL5, YLG competition, read-out: IC50, replicate 3
[18] = ShHTL5, average of 3 replicates, read-out: IC50, average
[19] = ShHTL6, YLG competition, read-out: IC50, replicate 1
[20] = ShHTL6, YLG competition, read-out: IC50, replicate 2
[21] = ShHTL6, YLG competition, read-out: IC50, replicate 3
[22] = ShHTL6, average of 3 replicates, read-out: IC50, average
[23] = ShHTL8, YLG competition, read-out: IC50, replicate 1
[24] = ShHTL8, YLG competition, read-out: IC50, replicate 2
[25] = ShHTL8, YLG competition, read-out: IC50, replicate 3
[26] = ShHTL8, average of 3 replicates, read-out: IC50, average
[27] = ShHTL9, YLG competition, read-out: IC50, replicate 1
[28] = ShHTL9, YLG competition, read-out: IC50, replicate 2
[29] = ShHTL9, YLG competition, read-out: IC50, replicate 3
[30] = ShHTL9, average of 3 replicates, read-out: IC50, average
[31] = ShHTL10, YLG competition, read-out: IC50, replicate 1
[32] = ShHTL10, YLG competition, read-out: IC50, replicate 2
[33] = ShHTL10, YLG competition, read-out: IC50, replicate 3
[34] = ShHTL10, average of 3 replicates, read-out: IC50, average
[35] = ShHTL11, YLG competition, read-out: IC50, replicate 1
[36] = ShHTL11, YLG competition, read-out: IC50, replicate 2
[37] = ShHTL11, YLG competition, read-out: IC50, replicate 3
[38] = ShHTL11, average of 3 replicates, read-out: IC50, average

Sequence of ShHTL7 (A0A0M3PNA2 entry or part of it): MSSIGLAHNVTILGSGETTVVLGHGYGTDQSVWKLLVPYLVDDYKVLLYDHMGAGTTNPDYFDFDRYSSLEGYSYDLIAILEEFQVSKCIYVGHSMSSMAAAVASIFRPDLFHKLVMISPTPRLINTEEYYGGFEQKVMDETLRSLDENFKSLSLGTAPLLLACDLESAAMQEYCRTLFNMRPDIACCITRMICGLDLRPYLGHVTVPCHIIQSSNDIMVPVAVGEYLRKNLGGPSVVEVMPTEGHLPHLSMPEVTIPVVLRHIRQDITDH

## CC1=C[C@H](O/C=C2/C(=O)O[C@@H]3c4ccccc4C[C@H]23)OC1=O (racemic) [rac-GR24, reference compound]
[1]; 1:3 methanol and PBS (10 mM) pH 7.4, HPLC
  half-life time (t1/2): 3.0 h
[1]; Supplementary Fig. 10 source data, methanol/PBS pH 7.4, 26 °C
  half-life time (t1/2), source data average: 3.031 h
ShHTL7
  hydrolysis by ShHTL7: 51.9%
  relative percentage of hydrolysis by ShHTL7, source data average: 51.9391%
P. aegyptiaca seeds; 10 μM, Fig. 1d source data, average of 3
  germination of P. aegyptiaca seeds, source data average: 96.5229%
P. aegyptiaca seeds; 0.1 (unit uncertain) as printed
  P. aegyptiaca seed germination activity, source data average: 90.7731%
P. aegyptiaca seeds; 1 (unit uncertain) as printed
  P. aegyptiaca seed germination activity, source data average: 95.3227%
P. aegyptiaca seeds; 10 (unit uncertain) as printed
  P. aegyptiaca seed germination activity, source data average: 96.5229%
P. aegyptiaca seeds; Supplementary Table 1, compounds tested at 10 μM, means ± SD, n = 3
  P. aegyptiaca germination(%): 96.4%
P. aegyptiaca seeds; in vivo, read-out: EC50, P. aegyptiaca seed germination
  EC50: 0.0485 nM
P. aegyptiaca seeds; source data of Fig. 2c and Supplementary Fig. 8b, average of 3
  P. aegyptiaca germination EC50 values, source data average: 10.3597
[2]; [3]
  IC50: 26.2 µM
[2]; [4]
  IC50: 25.2 µM
[2]; [5]
  IC50: 25.5 µM
[2]; [6]
  IC50: 25.7 µM
[2]; [7]
  IC50: 9.4 µM
[2]; [8]
  IC50: 7.11 µM
[2]; [9]
  IC50: 8.7 µM
[2]; [10]
  IC50: 8.4 µM
[2]; [11]
  IC50: 0.239 µM
[2]; [12]
  IC50: 0.239 µM
[2]; [13]
  IC50: 0.28 µM
[2]; [14]
  IC50: 0.253 µM
[2]; [15]
  IC50: 5.89 µM
[2]; [16]
  IC50: 6.85 µM
[2]; [17]
  IC50: 6.74 µM
[2]; [18]
  IC50: 6.49 µM
[2]; [19]
  IC50: 2.28 µM
[2]; [20]
  IC50: 1.87 µM
[2]; [21]
  IC50: 2.23 µM
[2]; [22]
  IC50: 2.13 µM
[2]; [23]
  IC50: 6.15 µM
[2]; [24]
  IC50: 6.78 µM
[2]; [25]
  IC50: 4.51 µM
[2]; [26]
  IC50: 5.81 µM
[2]; [27]
  IC50: 4.91 µM
[2]; [28]
  IC50: 4.06 µM
[2]; [29]
  IC50: 5.17 µM
[2]; [30]
  IC50: 4.71 µM
[2]; [31]
  IC50: 4.93 µM
[2]; [32]
  IC50: 6.56 µM
[2]; [33]
  IC50: 5.51 µM
[2]; [34]
  IC50: 5.67 µM
[2]; [35]
  IC50: 3.27 µM
[2]; [36]
  IC50: 3.14 µM
[2]; [37]
  IC50: 3.16 µM
[2]; [38]
  IC50: 3.19 µM

## CC1=CC(OC(=O)N2CCN(C(=O)COc3ccc(Br)cc3C)CC2)OC1=O (stereo not shown) [4a]
[1]; methanol/phosphate-buffered saline mixture, Supplementary Fig. 10 source data, methanol/PBS pH 7.4, 26 °C, read-out: half-life time (t1/2), source data average (converted)
  half-life at 0.5 mM: 3.38 h
ShHTL7
  hydrolysis by ShHTL7: 36.4%
  relative percentage of hydrolysis by ShHTL7, source data average: 36.438%
P. aegyptiaca seeds; Phelipanche aegyptiaca, read-out: EC50, P. aegyptiaca seed germination
  EC50: ~0.0862 nM
P. aegyptiaca seeds; Phelipanche aegyptiaca, source data of Fig. 2c and Supplementary Fig. 8b, average of 3, read-out: P. aegyptiaca germination EC50 values, source data average (converted)
  EC50: 0.0628 nM
[2]; [3]
  IC50: 56.1 µM
[2]; [4]
  IC50: 49 µM
[2]; [5]
  IC50: 62.1 µM
[2]; [6]
  IC50: 55.8 µM
[2]; [7]
  IC50: 43.3 µM
[2]; [8]
  IC50: 41.4 µM
[2]; [9]
  IC50: 44.5 µM
[2]; [10]
  IC50: 43 µM
[2]; [11]
  IC50: 6.23 µM
[2]; [12]
  IC50: 4.7 µM
[2]; [13]
  IC50: 3.91 µM
[2]; [14]
  IC50: 4.95 µM
[2]; [15]
  IC50: 18.6 µM
[2]; [16]
  IC50: 15.2 µM
[2]; [17]
  IC50: 13.3 µM
[2]; [18]
  IC50: 15.7 µM
[2]; [19]
  IC50: 28.4 µM
[2]; [20]
  IC50: 23.6 µM
[2]; [21]
  IC50: 18.4 µM
[2]; [22]
  IC50: 23.5 µM
[2]; [23]
  IC50: 14.7 µM
[2]; [24]
  IC50: 15.3 µM
[2]; [25]
  IC50: 21.5 µM
[2]; [26]
  IC50: 17.2 µM
[2]; [27]
  IC50: 20.4 µM
[2]; [28]
  IC50: 21.8 µM
[2]; [29]
  IC50: 26.6 µM
[2]; [30]
  IC50: 22.9 µM
[2]; [31]
  IC50: 31.1 µM
[2]; [32]
  IC50: 39.7 µM
[2]; [33]
  IC50: 31 µM
[2]; [34]
  IC50: 33.9 µM
[2]; [35]
  IC50: 9.32 µM
[2]; [36]
  IC50: 9.73 µM
[2]; [37]
  IC50: 13.1 µM
[2]; [38]
  IC50: 10.7 µM
